Reference: ChEMBL document CHEMBL1201862, “PubChem BioAssay data set” (2004)
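Exposure lasted 48 hours, with cells grown in 96-well plates and compounds tested at five concentrations. At the GI50, growth is halved.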 Calls of active or inactive are those of the source. No stated cut-off is given here; in the data, active = GI50 up to about 1.1 µM and inactive = higher.

Tests used:
Experiment in all cases: NCI tumour cell line growth inhibition, 48 h
[1] = system: MDA-N
[2] = system: T47D
[3] = system: SK-OV-3
[4] = system: UO-31
[5] = system: DU-145
[6] = system: SW-620
[7] = system: OVCAR-5
[8] = system: UACC-257
[9] = system: TK-10
[10] = system: RPMI-8226
[11] = system: UACC-62
[12] = system: NCI-H23
[13] = system: CAKI-1
[14] = system: Malme-3M
[15] = system: HL-60
[16] = system: EKVX
[17] = system: SNB-75
[18] = system: NCI-H226
[19] = system: HCC 2998
[20] = system: NCI-H460
[21] = system: SK-MEL-5
[22] = system: OVCAR-3
[23] = system: A549
[24] = system: MDA-MB-435
[25] = system: HCT-116
[26] = system: SF-295
[27] = system: HOP-92
[28] = system: COLO 205
[29] = system: SR
[30] = system: CCRF-CEM
[31] = system: HOP-62
[32] = system: RXF 393
[33] = system: LOX IMVI
[34] = system: MOLT-4
[35] = system: M14
[36] = system: MCF7
[37] = system: HT-29
[38] = system: SK-MEL-28
[39] = system: OVCAR-8
[40] = system: HCT-15
[41] = system: SF-268
[42] = system: A498
[43] = system: ACHN
[44] = system: SNB-19
[45] = system: KM12
[46] = system: SF-539
[47] = system: 786-0
[48] = system: NCI/ADR-RES
[49] = system: K562
[50] = system: PC-3
[51] = system: SN12C
[52] = system: Hs-578T
[53] = system: MDA-MB-231
[54] = system: U-251
[55] = system: OVCAR-4
[56] = system: SK-MEL-2
[57] = system: IGROV-1
[58] = system: NCI-H522
[59] = system: BT-549

## Cc1c(-c2ccccn2)ccc2ccccc12
[1]
  GI50: 61 µM (inactive)
[2]
  GI50: 39.2 µM (inactive)
[3]
  GI50: > 100 µM (inactive)
[4]
  GI50: 32.7 µM (inactive)
[5]
  GI50: > 100 µM (inactive)
[6]
  GI50: 80.4 µM (inactive)
[7]
  GI50: > 100 µM (inactive)
[8]
  GI50: > 100 µM (inactive)
[9]
  GI50: 45.2 µM (inactive)
[10]
  GI50: 19 µM (inactive)
[11]
  GI50: 47.1 µM (inactive)
[12]
  GI50: 90.2 µM (inactive)
[13]
  GI50: 45 µM (inactive)
[14]
  GI50: 69.7 µM (inactive)
[15]
  GI50: 44.6 µM (inactive)
[16]
  GI50: 52.6 µM (inactive)
[17]
  GI50: 27.9 µM (inactive)
[18]
  GI50: 43 µM (inactive)
[19]
  GI50: 37.8 µM (inactive)
[20]
  GI50: 42.4 µM (inactive)
[21]
  GI50: 35.7 µM (inactive)
[22]
  GI50: 41.4 µM (inactive)
[23]
  GI50: 69.5 µM (inactive)
[24]
  GI50: 48.5 µM (inactive)
[25]
  GI50: 43.4 µM (inactive)
[26]
  GI50: 83.8 µM (inactive)
[27]
  GI50: 23 µM (inactive)
[28]
  GI50: 41.4 µM (inactive)
[29]
  GI50: 56.1 µM (inactive)
[30]
  GI50: 28.2 µM (inactive)
[31]
  GI50: > 100 µM (inactive)
[32]
  GI50: 29.1 µM (inactive)
[33]
  GI50: 93.3 µM (inactive)
[34]
  GI50: 90.2 µM (inactive)
[35]
  GI50: > 100 µM (inactive)
[36]
  GI50: 88.7 µM (inactive)
[37]
  GI50: 41.7 µM (inactive)
[38]
  GI50: 85.5 µM (inactive)
[39]
  GI50: 26.4 µM (inactive)
[40]
  GI50: 27.7 µM
[41]
  GI50: 54 µM (inactive)
[42]
  GI50: > 100 µM (inactive)
[43]
  GI50: 52.7 µM (inactive)
[44]
  GI50: > 100 µM (inactive)
[45]
  GI50: 82.8 µM (inactive)
[46]
  GI50: > 100 µM (inactive)
[47]
  GI50: 77.3 µM (inactive)
[48]
  GI50: 45.9 µM (inactive)
[49]
  GI50: 71 µM (inactive)
[50]
  GI50: 47.3 µM (inactive)
[51]
  GI50: 61.1 µM (inactive)
[52]
  GI50: > 100 µM (inactive)
[53]
  GI50: 44.6 µM (inactive)
[54]
  GI50: 93.5 µM (inactive)

## COC(=O)[C@H](NC(=O)OC(C)(C)C)[C@H]1COC(C)(C)O1
[1]
  GI50: > 100 µM (inactive)
[55]
  GI50: > 100 µM (inactive)
[3]
  GI50: > 100 µM (inactive)
[4]
  GI50: > 100 µM (inactive)
[5]
  GI50: > 100 µM (inactive)
[6]
  GI50: > 100 µM (inactive)
[7]
  GI50: > 100 µM (inactive)
[8]
  GI50: > 100 µM (inactive)
[9]
  GI50: > 100 µM (inactive)
[10]
  GI50: > 100 µM (inactive)
[11]
  GI50: > 100 µM (inactive)
[12]
  GI50: > 100 µM (inactive)
[13]
  GI50: > 100 µM (inactive)
[14]
  GI50: 40.1 µM (inactive)
[56]
  GI50: > 100 µM (inactive)
[15]
  GI50: > 100 µM (inactive)
[16]
  GI50: > 100 µM (inactive)
[19]
  GI50: > 100 µM (inactive)
[21]
  GI50: > 100 µM (inactive)
[22]
  GI50: > 100 µM (inactive)
[23]
  GI50: > 100 µM (inactive)
[24]
  GI50: > 100 µM (inactive)
[25]
  GI50: > 100 µM (inactive)
[26]
  GI50: > 100 µM (inactive)
[28]
  GI50: > 100 µM (inactive)
[29]
  GI50: > 100 µM (inactive)
[30]
  GI50: > 100 µM (inactive)
[31]
  GI50: > 100 µM (inactive)
[32]
  GI50: > 100 µM (inactive)
[33]
  GI50: > 100 µM (inactive)
[34]
  GI50: > 100 µM (inactive)
[35]
  GI50: > 100 µM (inactive)
[36]
  GI50: > 100 µM (inactive)
[37]
  GI50: > 100 µM (inactive)
[38]
  GI50: > 100 µM (inactive)
[39]
  GI50: > 100 µM (inactive)
[40]
  GI50: > 100 µM
[41]
  GI50: > 100 µM (inactive)
[42]
  GI50: > 100 µM (inactive)
[43]
  GI50: > 100 µM (inactive)
[44]
  GI50: > 100 µM (inactive)
[45]
  GI50: > 100 µM (inactive)
[46]
  GI50: > 100 µM (inactive)
[47]
  GI50: > 100 µM (inactive)
[57]
  GI50: > 100 µM (inactive)
[48]
  GI50: > 100 µM (inactive)
[49]
  GI50: > 100 µM (inactive)
[50]
  GI50: > 100 µM (inactive)
[58]
  GI50: > 100 µM (inactive)
[59]
  GI50: > 100 µM (inactive)
[51]
  GI50: > 100 µM (inactive)
[53]
  GI50: > 100 µM (inactive)
[54]
  GI50: > 100 µM (inactive)

## COc1ccc(N2C(=O)C3c4[nH]c5ccc(F)cc5c4C4CCC(C(C)(C)C)CC4C3C2=O)cc1 (stereo not given)
[1]
  GI50: > 10 µM (inactive)
[2]
  GI50: 9.25 µM (inactive)
[55]
  GI50: 6.05 µM (inactive)
[3]
  GI50: > 10 µM (inactive)
[4]
  GI50: > 10 µM (inactive)
[5]
  GI50: > 10 µM (inactive)
[6]
  GI50: 7.26 µM (inactive)
[7]
  GI50: > 10 µM (inactive)
[9]
  GI50: 9.38 µM (inactive)
[10]
  GI50: > 10 µM (inactive)
[11]
  GI50: 7.43 µM (inactive)
[12]
  GI50: > 10 µM (inactive)
[13]
  GI50: > 10 µM (inactive)
[14]
  GI50: > 10 µM (inactive)
[56]
  GI50: > 10 µM (inactive)
[15]
  GI50: > 10 µM (inactive)
[16]
  GI50: > 10 µM (inactive)
[17]
  GI50: 1.84 µM (inactive)
[18]
  GI50: > 10 µM (inactive)
[19]
  GI50: > 10 µM (inactive)
[20]
  GI50: 5.07 µM (inactive)
[21]
  GI50: > 10 µM (inactive)
[22]
  GI50: > 10 µM (inactive)
[23]
  GI50: 7.1 µM (inactive)
[24]
  GI50: > 10 µM (inactive)
[25]
  GI50: 4.14 µM (inactive)
[26]
  GI50: 6.04 µM (inactive)
[28]
  GI50: > 10 µM (inactive)
[29]
  GI50: > 10 µM (inactive)
[30]
  GI50: 7.13 µM (inactive)
[31]
  GI50: 7.23 µM (inactive)
[32]
  GI50: > 10 µM (inactive)
[34]
  GI50: > 10 µM (inactive)
[35]
  GI50: 7.85 µM (inactive)
[36]
  GI50: > 10 µM (inactive)
[37]
  GI50: 6.28 µM (inactive)
[38]
  GI50: > 10 µM (inactive)
[39]
  GI50: 7.8 µM (inactive)
[40]
  GI50: > 10 µM
[41]
  GI50: 8.28 µM (inactive)
[42]
  GI50: > 10 µM (inactive)
[43]
  GI50: > 10 µM (inactive)
[44]
  GI50: > 10 µM (inactive)
[45]
  GI50: > 10 µM (inactive)
[46]
  GI50: 6.35 µM (inactive)
[57]
  GI50: > 10 µM (inactive)
[48]
  GI50: 9.08 µM (inactive)
[50]
  GI50: 7.33 µM (inactive)
[58]
  GI50: 6.87 µM (inactive)
[51]
  GI50: > 10 µM (inactive)
[52]
  GI50: 2.81 µM (inactive)
[53]
  GI50: > 10 µM (inactive)
[54]
  GI50: 5.02 µM (inactive)
